Source: US11897887B2, “sGC stimulators” (Tisento Therapeutics Inc., priority 2017, dated 2024)
pEC50: −log10 of the molar value.

test system: Sprague-Dawley Rats; experiment: Blood pressure change in Sprague-Dawley rats; details: conscious rat, Compound I-15 (prodrug salt of I-2) dosed orally in water at 10 mg/kg, 160 minutes post-dose
Procedure: Male rats (250-350 g body weight, supplied by Harlan Laboratories) were anesthetized with ketamine/xylazine and a heparinized saline fluid filled catheter implanted into the right femoral artery. The catheter was exteriorized between the scapula, capped, and the animal allowed to recover for at least 7 days post surgery prior to any compound testing. Prior to testing animals were maintained on normal diet, with free access to drinking water, under a 12 hour light-dark cycle.
On the day of experimentation, under inhaled isoflurane anesthesia, the catheter was uncapped and connected to a tether (Instech Labs) and pressure transducer (Harvard Apparatus). Blood pressure and heart rate were subsequently captured and analyzed with a dedicated data capture system (PowerLab, ADInstruments). Data sampling rates were set at 1 cycle per second. Once connected, each rat was allowed to recover from anesthesia and baseline blood pressure and heart rate levels were established in these conscious, freely-moving animals. Once baseline was established either vehicle (0.5% methylcellulose or 100% PEG400) or test article was administered orally (PO, 10 mg/kg) and the effects on blood pressure and heart rate monitored for up to 24 hours.

| SMILES | decrease of MAP (mean arterial pressure) below baseline |
| --- | --- |
| OC(CNc1nc(-c2cn3ccnc3c(Cc3ccccc3F)n2)ncc1F)(C(F)(F)F)C(F)(F)F [Compound I-2, 1,1,1,3,3,3-hexafluoro-2-(((5-fluoro-2-(8-(2-fluorobenzyl)imidazo[1,2-a]pyrazin-6-yl)pyrimidin-4-yl)amino)methyl)propan-2-ol] | about 10 mmHg |

same assay, conditions: rat, dosed orally in water at 10 mg/kg, one hour post-dose

| SMILES | dosed Compound I-15 converted to Compound I-2 |
| --- | --- |
| O=P([O-])([O-])OC(CNc1nc(-c2cn3ccnc3c(Cc3ccccc3F)n2)ncc1F)(C(F)(F)F)C(F)(F)F.[Na+].[Na+] [Compound I-15] | 97.5% |

target: T1, sGC enzyme (Homo sapiens, UniProt Q02153); experiment: cGMP GloSensor cell-based assay, 384-well format; details: HEK293 cells expressing GloSensor 40F cGMP; 10 μM DETA-NONOate; 55 min incubation; normalized to high control Compound Y (30 μM); read-out: Glo-sGC Absolute EC50
T1 construct: incorporated into these cells detect cGMP formed by the compounds stimulating the sGC enzyme; host or cells: HEK293 cells stably expressing the GloSensor 40F cGMP biosensor
T1 sequence (Q02153 1-619): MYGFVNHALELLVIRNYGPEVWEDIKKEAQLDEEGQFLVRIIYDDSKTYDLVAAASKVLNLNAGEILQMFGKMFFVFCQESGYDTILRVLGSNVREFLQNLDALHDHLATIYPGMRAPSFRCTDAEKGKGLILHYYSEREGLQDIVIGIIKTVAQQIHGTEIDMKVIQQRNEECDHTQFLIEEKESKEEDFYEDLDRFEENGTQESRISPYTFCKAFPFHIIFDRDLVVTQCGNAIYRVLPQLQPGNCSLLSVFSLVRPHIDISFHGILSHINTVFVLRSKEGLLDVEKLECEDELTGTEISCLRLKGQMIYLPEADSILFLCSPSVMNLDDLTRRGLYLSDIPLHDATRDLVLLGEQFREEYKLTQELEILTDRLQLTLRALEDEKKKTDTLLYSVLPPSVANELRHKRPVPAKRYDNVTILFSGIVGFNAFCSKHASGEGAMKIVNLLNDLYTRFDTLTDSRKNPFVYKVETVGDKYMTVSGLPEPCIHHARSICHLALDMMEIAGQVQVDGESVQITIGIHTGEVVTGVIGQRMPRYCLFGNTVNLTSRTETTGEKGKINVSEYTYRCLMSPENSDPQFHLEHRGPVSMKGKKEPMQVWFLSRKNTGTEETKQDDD
T1 sequence (Q02108 1-690 partner): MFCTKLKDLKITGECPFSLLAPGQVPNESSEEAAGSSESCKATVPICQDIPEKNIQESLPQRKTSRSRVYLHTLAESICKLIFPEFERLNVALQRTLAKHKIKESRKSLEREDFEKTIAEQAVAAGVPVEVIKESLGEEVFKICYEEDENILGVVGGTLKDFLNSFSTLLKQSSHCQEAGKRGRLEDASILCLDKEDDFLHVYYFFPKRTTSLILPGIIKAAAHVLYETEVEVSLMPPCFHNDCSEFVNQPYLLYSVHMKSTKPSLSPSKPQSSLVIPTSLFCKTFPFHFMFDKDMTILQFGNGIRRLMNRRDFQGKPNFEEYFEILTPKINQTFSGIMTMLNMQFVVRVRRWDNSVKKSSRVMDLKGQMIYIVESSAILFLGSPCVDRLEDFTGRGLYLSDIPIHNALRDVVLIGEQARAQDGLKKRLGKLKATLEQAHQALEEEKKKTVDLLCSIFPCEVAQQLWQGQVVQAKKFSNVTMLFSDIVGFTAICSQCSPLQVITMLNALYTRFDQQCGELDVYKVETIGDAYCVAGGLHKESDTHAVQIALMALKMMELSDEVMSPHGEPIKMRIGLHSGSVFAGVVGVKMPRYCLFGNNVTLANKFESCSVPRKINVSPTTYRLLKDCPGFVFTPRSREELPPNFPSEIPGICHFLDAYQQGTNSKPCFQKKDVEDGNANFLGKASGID
Procedure: Human embryonic kidney cells (HEK293) cells expressing GloSensor™ 40F cGMP (Part No: CS182801, Promega) were used to evaluate the activity of test compounds. The luminescent biosensors (engineered luciferase) that were incorporated into these cells detect cGMP formed by the compounds stimulating the sGC enzyme and emit luminescence.
cGMP GoSensor cells were maintained in Dulbecco's Modification of Eagle's Medium (DMEM) supplemented with fetal bovine serum (FBS, 10% final) and hygromycine (200 ug/ml). The day before assay, cells were plated in DMEM with 10% FBS in a 50 μL volume at a density of 1.5×10^4 cells/well in a poly-D-lysine coated 384-well flat white-bottom plate (Corning Cat No 35661). Cells were incubated overnight at 37° C. in a humidified chamber with 5% CO2. The next day, medium was removed and cells were replaced with 40 ul/well of GoSensor™, 2 mM (Promega Cat No E1291). Cells were treated for 90 minutes at 25° C. to allow the substrate to equilibrate in the cells. Test compounds and Diethylenetriamine NONOate (DETA-NONOate) was diluted to 3 mM (20×) in serum-free CO2 independent medium and serially diluted at 4× dilutions to create 5× dose curve from which 10 ul was added to the wells (x μM concentration for test compound solution and 10 μM concentration for DETA-NONOate solution; wherein x is one of the following final concentrations).
For the kinetics studies, luminescence was measured right away for 0.2 sec per well with Envision (Perkin Elmer). For endpoint SAR screening, data were collected after 55 min incubation at room temperature.
Data were normalized to a high control using the following equation: 100*(Sample-Low Control)/(High Control-Low Control), where the low control is the average of sixteen DMSO (1%) control datapoints, and the high control is the average of sixteen Compound Y (30 μM) datapoints, wherein Compound Y is depicted below. Data were fit using a 4-parameter fit (log(agonist) vs. response—variable slope) using GraphPad Prism Software v.5. n=2 for all compounds. The Absolute EC50 was interpolated from the curve fit and is defined as the concentration at which a given compound elicits 50% of the high control response after data normalization as indicated above. Compounds failing to elicit a minimum response of 50% are reported as >30 μM or ND (not determined). For compounds run in duplicate or n higher than 2, the result herein given is the geometric mean of the several results obtained.

| SMILES | pEC50 |
| --- | --- |
| OC(CNc1nc(-c2cn3ncnc3c(Cc3ccccc3F)n2)ncc1F)(C(F)(F)F)C(F)(F)F [Compound I-6] | 6.00 to 7.00 |
| CC(C)(O)CNc1nc(-c2cn3c(Cl)cnc3c(Cc3ccccc3F)n2)ncc1F [Compound I-7] | 6.00 to 7.00 |
| NC(=O)[C@](O)(CNc1nc(-c2cn3ccnc3c(Cc3cc(F)ccc3F)n2)ncc1F)C(F)(F)F [Compound I-5] | ≥ 7.00 |
| OCCNc1ccnc(-c2cn3ccnc3c(Cc3ccccc3F)n2)n1 [Compound I-9] | 6.00 to 7.00 |
| NC(=O)[C@](O)(CNc1nc(-c2cn3ccnc3c(Cc3ccccc3F)n2)ncc1F)C(F)(F)F [Compound I-3] | ≥ 7.00 |
| OC(CNc1nc(-c2cn3ccnc3c(Cc3ccccc3F)n2)ncc1Cl)C(F)(F)F (racemic) [Compound I-8] | 6.00 to 7.00 |
| NC(=O)[C@](O)(CNc1nc(-c2cn3ncnc3c(Cc3ccccc3F)n2)ncc1F)C(F)(F)F [Compound I-16] | 6.00 to 7.00 |
| N#Cc1cnc(-c2cn3ncnc3c(Cc3ccccc3F)n2)nc1NCC(O)(C(F)(F)F)C(F)(F)F [Compound I-12] | 6.00 to 7.00 |
| Cc1c(F)cc(Cc2nc(-c3ncc(Cl)c(NCC(O)(C(F)(F)F)C(F)(F)F)n3)cn3ccnc23)cc1F [Compound I-10] | 4.52 to 6.00 |
| COc1cnc(-c2cn3ncnc3c(Cc3ccccc3F)n2)nc1NCC(O)C(F)(F)F (racemic) [Compound I-11] | 4.52 to 6.00 |
| O=P([O-])([O-])OC(CNc1nc(-c2cn3ccnc3c(Cc3ccccc3F)n2)ncc1F)(C(F)(F)F)C(F)(F)F.[Na+].[Na+] [Compound I-15] | 4.52 to 6.00 |
| OC(CNc1nc(-c2cn3ccnc3c(Cc3ccccc3F)n2)ncc1F)(C(F)(F)F)C(F)(F)F [Compound I-2, 1,1,1,3,3,3-hexafluoro-2-(((5-fluoro-2-(8-(2-fluorobenzyl)imidazo[1,2-a]pyrazin-6-yl)pyrimidin-4-yl)amino)methyl)propan-2-ol] | ≥ 7.00 |
